Experimental data taken from US8921414B2, “Spiroketals” (EcoBiotics Ltd, priority 2005, dated 2014).
Values after ≈ are worked out from the molar mass of the structure shown.

Experiments:
Bacillus subtilis = assay: ProTOX (Bs) antibacterial bioassay; type: cell-based; details: for Bs LD99: weight of chemical in last well with activity, real value may be lower
Source text: ProTOX, (alternatively referred to herein as Bs) is an antibacterial bioassay, broadly applicable to most aerobic and anaerobic bacteria. The bioassay features a solid phase agar base into which the test compound has been incorporated together with a chromogen. As the bacteria multiply in the well, the chromogen is metabolised from blue in a two-step process to a colourless compound. Compounds with potent bactericidal activity inhibit bacterial metabolism of the chromogen while bacteriostatic compounds induce limited metabolism as indicated by an intermediate pink colour. ProTOX is broadly applicable to a range of gram-positive and gram-negative bacteria under aerobic and microaerophilic conditions. ProTOX assays were carried out using Bacillus subtilis. Briefly, in ProTOX, the bacteria (24 hour broth) were applied to the surface of an agar matrix containing the test sample and allowed to grow for 48 h. The assay was monitored at 24 and 48 hours and the active wells noted. Known antibiotics yield consistent colour transitions which are concentration and time dependent. These patterns provided an important guide to the early recognition of interesting characteristics.

[1] = system: NS1 murine myeloma cell line; assay: CyTOX (Cy) cytotoxicity bioassay; type: cell-based; details: for Cy LD99: weight of chemical in last well with activity, real value may be lower
Source text: CyTOX (alternatively referred to herein as Cy) is a microtitre plate bioassay use to identify potential antitumor actives. CyTOX is a chromogenic bioassay with broad application to a wide range of tumor and non-tumor cell lines. […] CyTOX features a liquid media into which the test compound has been incorporated together with a novel chromogen. As the cells grow and divide the chromogen is metabolised from purple in a single step process to a colourless metabolite. CyTOX is routinely undertaken using NS1 murine myeloma cell line as a guide to mammalian cell toxicity. Briefly, in CyTOX the cells were applied to the media containing the test chemical and allowed to grow for 72 hours. The assay was monitored at 24, 48 and 72 hours and the active wells identified.

Drosophila melanogaster = assay: DipteraTOX insecticidal bioassay; design: key: A value of A in DipG, Dip P or Dip H represents very active; a value of P represents active; details: 250 μg per mL in agar
Procedure: DipteraTOX. DipteraTOX is referred to herein as DipG, DipP and DipH. DipG represents no grazing of larva. DipP represents no pupae formation and Dip H represents no hatching of flies. A value of A in DipG, Dip P or Dip H represents very active and a value of P represents active. In DipteraTox the fly eggs are applied to the surface of an agar matrix containing 250 μg per mL of the test chemical and allowed to hatch, develop and pupate for a period up of two weeks. The assay was monitored at two discrete times to determine the extent of grazing of the agar matrix at Week 1 and the presence of adult flies at Week 2. […] Drosophila melanogaster was utilised for this assay.

Giardia spp. = assay: TriTOX (Gi) anti-protozoan bioassay; type: cell-based; details: for Gi LD99: weight of chemical in last well with activity, real value may be lower
Source text: TriTOX (alternatively referred to herein as Gi) is a microtitre plate based chromogenic bioassay for the screening of anti-protozoan activity of pathogenic, anaerobic/microaerophilic protozoans for example Giardia spp. and Trichomonas spp. The bioassays are run under anaerobic conditions and features species specific chromogens. […] Aliquots of each concentration(s) are applied to the wells of 96-well microtitre plates and diluted with media. […] The lowest concentration at which the compound is active is noted as the minimum inhibitory concentration (MIC). Additionally, microscopic inspection is carried out to identify any patterns of morphological change that may be consistent with a type of toxicity and therefore mode of action. Giardia spp. was utilized for this assay.

[2] = system: normal human fibroblasts (NFF); assay: Additional in vitro activity: cytotoxic activity, NFF; type: cell-based; details: concentration with activity
melanoma MM418c5 = assay: Additional in vitro activity: antitumor activity, MM418c5; type: cell-based, human; details: concentration with activity
prostate DU145 = assay: Additional in vitro activity: antitumor activity, DU145; type: cell-based, human; details: concentration with activity
ovarian C180-13S = assay: Additional in vitro activity: antitumor activity, C180-13S; type: cell-based, human; details: concentration with activity
[3] = system: Neonatal foreskin fibroblasts (NFF); assay: Cell growth inhibition (Table 22), NFF; type: cell-based; details: Homo sapiens, read-out: IC50 (drug dose which inhibits cell growth by 50%) NFF
Procedure: (§1) The isolated compounds were tested against a number of human and non-human cancer cell lines. The human tumor cell lines were: MCF-7, MDA-MB-231 and T47D, breast cancer; DU145 and PC3, prostate cancer; CI80-13S, ovarian cancer; MM96L, D04, SkMel5, MM418c5 melanoma; HT29, colon cancer; K562 and HL60, leukemia. Mouse cell lines were the B16 mouse melanoma and LK2 UV-induced squamous cell carcinoma (SCC). Neonatal foreskin fibroblasts (NFF) were used as normal control cells. Cells were cultured at 37° C. in 5% carbon dioxide/air, in RPMI 1640 medium containing 10% fetal calf serum.

DU145 prostate cancer = assay: Cell growth inhibition (Table 22), DU145; type: cell-based; details: Homo sapiens, DU-145; read-out: IC50 (drug dose which inhibits cell growth by 50%) DU145
Procedure: as §1

K562 leukemia = assay: Cell growth inhibition (Table 22), K562; type: cell-based; details: Homo sapiens, read-out: IC50 (drug dose which inhibits cell growth by 50%) K562
Procedure: as §1

MM96L melanoma = assay: Cell growth inhibition (Table 22), MM96L; type: cell-based; details: Homo sapiens, read-out: IC50 (drug dose which inhibits cell growth by 50%) MM96L
Procedure: as §1

In the case of CCCCCCCCCCCCCC(O)CC1CC(O)CC2(CC3OC(=O)C=CC3O2)O1 (centres unmarked) [EBI-23], the “Bs Titre” value (Bacillus subtilis) is reported as 16, the “Bs LD99” value (Bacillus subtilis; listed as EB77.LA4.92-100) is reported as 3.9 µg/mL and the “Bs LD99” value (Bacillus subtilis; listed as EB116.LA3.31-27/32) is reported as 3.1 µg/mL. For the same compound, the “Bs LD99” value (Bacillus subtilis; listed as EB116.LA3.60-40/42) was 6.3 µg/mL, the “Cy Titre” value [1] was 256 and the “Cy LD99” value ([1]; listed as EB77.LA4.92-100) was 0.24 µg/mL. For the same compound, the “Cy LD99” value ([1]; listed as EB116.LA3.31-27/32) was 0.78 µg/mL, the “Cy LD99” value ([1]; listed as EB116.LA3.60-40/42) was 0.78 µg/mL and the “DipP (no pupae formation)” value (Drosophila melanogaster) was “P”. The “Gi Titre” value (Giardia spp.) was 4, the “Gi LD99” value (Giardia spp.; listed as EB77.LA4.92-100) was 16 µg/mL and the “Gi LD99” value (Giardia spp.; listed as EB116.LA3.31-27/32) was 50 µg/mL. For the same compound, the “Gi LD99” value (Giardia spp.; listed as EB116.LA3.60-40/42) was 50 µg/mL, the “cytotoxic activity against normal human fibroblasts (NFF) at” value [2] was 30 µg/mL and the “antitumor activity against melanoma MM418c5 at” value (melanoma MM418c5) was 1 µg/mL. For the same compound, the “antitumor activity against prostate DU145 at” value (prostate DU145) was 3 µg/mL, the “antitumor activity against ovarian C180-13S at” value (ovarian C180-13S) was 1 µg/mL and the IC50 [3] was 2 µg/mL (≈ 4.42 µM). For the same compound, the IC50 (DU145 prostate cancer) was 0.7 µg/mL (≈ 1.55 µM), the IC50 (K562 leukemia) was 1.7 µg/mL (≈ 3.76 µM) and the IC50 (MM96L melanoma) was 0.15 µg/mL (≈ 0.331 µM).

CC/C=C/CCCCCCCCCCCC(O)CC1CC(O)CC2(CC3OC(=O)C=CC3O2)O1 (centres unmarked) [EBI-24] was tested, and the “Bs LD99” value (Bacillus subtilis) was 13 µg/mL, the “Cy LD99” value [1] was 0.78 µg/mL and the “DipH (no hatching of flies)” value (Drosophila melanogaster) was “P/P”. For the same compound, the “DipP (no pupae formation)” value (Drosophila melanogaster) was “P/P”, the “Gi LD99” value (Giardia spp.; listed as EB116.LA3.31-36/40) was 100 µg/mL and the “Gi LD99” value (Giardia spp.; listed as EB116.LA3.60-47/49) was 50 µg/mL. The “cytotoxic activity against normal human fibroblasts (NFF) at” value [2] was 10 µg/mL, the “antitumor activity against melanoma MM418c5 at” value (melanoma MM418c5) was 10 µg/mL and the “antitumor activity against prostate DU145 at” value (prostate DU145) was 10 µg/mL. The “antitumor activity against ovarian C180-13S at” value (ovarian C180-13S) was 3 µg/mL, the IC50 [3] was 0.8 µg/mL (≈ 1.67 µM) and the IC50 (DU145 prostate cancer) was 0.7 µg/mL (≈ 1.46 µM). It also gave an IC50 (K562 leukemia) of 0.6 µg/mL (≈ 1.25 µM) and an IC50 (MM96L melanoma) of 1.3 µg/mL (≈ 2.72 µM).
